Consider four molecules from patent US8703799B2, “Non-competitive NMDA receptor antagonists” (priority 2006, dated 2014).

The test system of one data set is MES-induced seizures. Briefly: Maximal electroshock (MES) test for anti-convulsive activity in mice. It is filed as in vivo. Details: key: (+) means MES test protection occurred at 100 mg/kg delivered i.p. in mice; (−) means that no activity was observed. The note with it: i.p., 100 mg/kg. The procedure:
The maximal electroshock (MES) test was used to initially screen compounds for anti-convulsive activity in mice.
In the MES test, 50 mA of […] alternating current was delivered to 19-25 g mice for 2 s by a corneal electrode which had been primed with an electrolyte solution containing an anesthetic agent (0.5% tetracaine HCl). Mice were tested at various intervals following doses of 30, 100 or 300 mg/kg of test compound given by i.p. injection in 0.01 ml/g of the aqueous carrier. Animals are considered protected from MES-induced seizures upon abolition of hindlimb tonic extensor component of the seizure (Swinyard et al. 1989; White et al. 1995a; White et al. 1995b).
(§1) For activity, (+) means MES test protection occurred at 100 mg/kg delivered i.p. in mice and (−) means that no activity was observed. For toxicity, (+++) means some animals died at 100 mg/kg and all animals died at 300 mg/kg; (++) means that some toxicity observed at 100 mg/kg and all animals died at 300 mg/kg; and (−) means no toxicity observed at 100 mg/kg and some observed at 300 mg/kg but no animals died at 300 mg/kg.
(In general: Protection in the maximal electroshock model is a classic sign of anticonvulsant action.)

In another data set the test system is mice. Briefly: Acute toxicity (rotorod minimal motor impairment, overt signs, death) in mice. It counts as in vivo. Details: key: (+++) means some animals died at 100 mg/kg and all animals died at 300 mg/kg; (++) means that some toxicity observed at 100 mg/kg and all animals died at 300 mg/kg; (−) means no toxicity observed at 100 mg/kg and some observed at 300 mg/kg but no animals died at 300 mg/kg. Particulars: i.p., 100 and 300 mg/kg. How it is done: Acute toxicity was assessed by monitoring animals for overt signs of impaired neurological or muscular function. The rotorod test measures minimal motor impairment (MMI) by placing mice on a rod rotated a 6 rpm. A compound is considered toxic if the mice fall off the rod three times during a 1-min period. Additionally, mice were observed and noted for circular or zigzag gaits, abnormal body posture and spread of the legs, tremors, hyperactivity, lack of exploratory behavior, somnolence, stupor, catalepsy, loss of placing response and change in muscle tone.
as §1

The subject of data set [1] is electrically-induced convulsions. Briefly: Anti-convulsive ED50 in rats, oral (electrically-induced convulsions). It is filed as in vivo. Particulars: delivered orally, amelioration of electrically-induced convulsions. How it is done:
Suitable dosages for the compounds and methods disclosed herein range from about 0.05, 0.1, 0.2 or 0.5 mg/kg body weight to about 100 or 200 mg/kg body weight. In certain embodiments, dosages range from about 0.5 to 1 mg/kg body weight to about 100 mg/kg body weight. In other embodiments doses range from about 10 to about 50 mg/kg body weight. Performance of studies to determine an optimal dosage for a particular condition using a particular compound is well within the level of ordinary skill in this field. […] For example, the ED50 of bicyclo,4-F-PCP for alleviation, treatment, or prevention of Alzheimer's and Parkinson's disease would be expected to be on the order of 3 mg/kg.
Compound 4 (Bicyclo,4-F-PCP) was tested in rats using 30 mg/kg delivered orally.

The nature of another data set: log P determination. It is filed as physicochemical. The note with it: measure of lipophilicity.
A short description of the next data set: pKa determination. It counts as physicochemical.
Data set [2] is described as follows: Aqueous solubility of fumarate salt. It counts as physicochemical. Particulars: read-out: solubility in aqueous solution.
The test system of data set [3] is NMDA receptors (MK-801 binding site). Briefly: MK-801 (dizocilpine) binding site assay. The note with it: rat forebrain membrane, 20 mM HEPES pH 7.5, 25° C., 90 min; FIG. 3. The procedure: NMDA receptors were isolated from rat forebrain membrane (Bmax=830 fmol/mg protein) and incubated with ^3H-labeled MK-801 maleate (15-30 Ci/mmol) in 20 mM HEPES (pH 7.5) buffer at 25° C. for 90 min to yield labeled receptors. MK-801 is a known non-competitive antagonist of NMDA receptor.
Selected concentrations of non-labeled bicyclo,4-F-PCP were incubated with the labeled receptors in 20 mM HEPES (pH 7.5) buffer at 25° C. for 90 min. At the conclusion of the assay, the reaction mixture was filtered immediately on glass filters by vacuum filtration and washed twice with buffer solutions. The radioactivity trapped on the filters was measured, compared with controls, and the ki and IC50 values of bicyclo,4-F-PCP were calculated.

Data set [4] concerns NMDA receptors (competitive site, CGP 39653). Briefly: NMDA agonist binding site assay ([3H]CGP 39653). Particulars: rat forebrain membrane, 50 mM TRIS-acetate pH 7.4, 0-4° C., 60 min; FIG. 4. How it is done: NMDA receptors were isolated from rat forebrain membrane (Bmax=0.77 pmol/mg tissue) and incubated with ^3H-labeled CGP 39653 (15-30 Ci/mmol) in 50 mM TRIS-acetate (pH 7.4) buffer at 0-4° C. for 60 min to yield labeled receptors. CGP 39653 is a known competitive antagonist of NMDA receptor.
Selected concentrations of non-labeled bicyclo,4-F-PCP were incubated with the labeled receptors in 50 mM TRIS-Acetate (pH 7.4) buffer at 0-4° C. for 60 min. At the conclusion of the assay, the reaction mixture was immediately filtered using glass filters and vacuum filtration, washing twice with buffer solutions. The radioactivity trapped on the filters was measured, compared with controls, and the ki and IC50 values of bicyclo,4-F-PCP calculated.

Molecules are shown by their SMILES. Values joined by “and” are separate entries in the source; they are usually repeats but may differ in a detail not shown here. Equal values may be shown once.

For `NC1(c2ccc(F)cc2)CC2CCC1C2` (racemic) [Compound 2, (±)-2-(4-fluorophenyl)-bicyclo[2.2.1]hept-2-ylamine], in the data set with MES-induced seizures, the “Activity (MES test protection)” value is on record as “+”. In addition, in the data set with mice, the Toxicity entry is on record as “++”.
Broadly, the ED50 is the dose at which the effect has come halfway, by size or by number of responders. In general, logP refers to the decadic logarithm of the partition coefficient of the neutral form, usually between octanol and water. Usually pKa stands for the pH at which an ionisable group is half protonated. In general, solubility refers to the concentration that dissolves in the medium under given conditions. `Fc1ccc(C2(N3CCCCC3)CC3CCC2C3)cc1` (racemic) [Compound 4, (±) 1-[2-(4-fluorophenyl)-bicyclo[2.2.1]hept-2-yl]-piperidine]: in the data set with MES-induced seizures, the “Activity (MES test protection)” value was “+”. Also, the Toxicity entry in the data set with mice is given as “−”. Besides, the ED50 in data set [1] (Rattus norvegicus, po, read-out: ED50 (effective dose)) is 28.3 mg/kg. In addition, in data set [1] (listed as bicyclo,4-F-PCP), the “ED50 (effective dose)” value stood at 28 mg/kg. For the same molecule, the logP in “log P determination” amounted to 2.07. For the same molecule, the pKa in “pKa determination” stood at 8.87. In data set [2], the solubility was 36600 µM and 14200 µg/mL. For the same molecule, the “displacement of [3H] MK-801 maleate bound to NMDA receptors” value in data set [3] is listed as “can displace”. Moreover, the “displacement of CGP 39653 from NMDA receptors” value in data set [4] is listed as “does not displace”.
For `NC1(c2ccccc2F)CCCCCC1` [cycloheptyl 2-F amine], the “Activity (MES test protection)” value with MES-induced seizures is given as “+”. In addition, the Toxicity result in the data set with mice was “++”.
The corresponding values for `Fc1ccc(C2(N3CCCCC3)CCCCCC2)cc1` [cycloheptyl 4-F piperidine] are “+” and “+++”.
